Paper PMC7343616 (The FEBS journal, 2020)

Legend:
wild-type PR = conditions: read-out: Ki for PR, ref Park et al. 2016. Biochemistry [18]; cited from earlier work
PRS5B [1] = target: PRS5B (Human immunodeficiency virus 1, UniProt P03367, A522V/A571V/C567A/C595A/E521D/E535N/G573T/I584V/L510I/L524M/M536I/N583D/Q507K/V511I, form not given); assay: FRET-based enzyme kinetic inhibition assay; assay type: biochemical, HIV-1; conditions: read-out: Ki for PRS5B; FRET substrate, 50 mM MES pH 5.6, 37°C; mean ± SD (n=3–5)
PR^S17 = conditions: Ki for mutant/Ki for wild-type; ref Park et al. 2016. Biochemistry [18]; cited from earlier work
PRS5B [2] = assay: FRET-based enzyme kinetic inhibition assay; assay type: biochemical, HIV-1; conditions: Ki for mutant/Ki for wild-type
isolate with PRS5B = conditions: ref Stanford HIV database; cited from earlier work

Row | SMILES | Ki (wild-type PR) [nM] | Ki (PRS5B [1]) [nM] | PR^S17 Ki fold change (PR^S17) | PRS5B Ki fold change (PRS5B [2]) | resistance in PhenoSense assay (isolate with PRS5B)
1 | CC(C)CN(C[C@@H](O)[C@H](Cc1ccccc1)NC(=O)O[C@H]1CCOC1)S(=O)(=O)c1ccc(N)cc1 [APV, amprenavir] | 0.2 | – | – | – | –
2 | COC(=O)N[C@H](C(=O)N[C@@H](Cc1ccccc1)[C@@H](O)CN(Cc1ccc(-c2ccccn2)cc1)NC(=O)[C@@H](NC(=O)OC)C(C)(C)C)C(C)(C)C [ATV, atazanavir] | 0.035 | 8.4 ± 0.9 | 2,000 fold | – | –
3 | CC(C)CN(C[C@@H](O)[C@H](Cc1ccccc1)NC(=O)O[C@H]1CO[C@H]2OCC[C@H]21)S(=O)(=O)c1ccc(N)cc1 [DRV, darunavir] | 0.005 | – | – | – | –
4 | CC(C)(C)NC(=O)[C@@H]1CN(Cc2cccnc2)CCN1C[C@@H](O)C[C@@H](Cc1ccccc1)C(=O)N[C@H]1c2ccccc2C[C@H]1O [IDV, indinavir] | 0.25 | – | – | – | –
5 | Cc1cccc(C)c1OCC(=O)N[C@@H](Cc1ccccc1)[C@@H](O)C[C@H](Cc1ccccc1)NC(=O)[C@H](C(C)C)N1CCCNC1=O [LPV, lopinavir] | 0.02 | 160 ± 10 | 3,650 fold | 8,000 fold | significant resistance, although not the highest level
6 | Cc1c(O)cccc1C(=O)N[C@@H](CSc1ccccc1)[C@H](O)CN1C[C@H]2CCCC[C@H]2C[C@H]1C(=O)NC(C)(C)C [NFV, nelfinavir] | 0.36 | – | – | – | –
7 | CC(C)(C)NC(=O)[C@@H]1C[C@@H]2CCCC[C@@H]2CN1C[C@@H](O)[C@H](Cc1ccccc1)NC(=O)[C@H](CC(N)=O)NC(=O)c1ccc2ccccc2n1 [SQV, saquinavir] | 0.39 | – | – | – | –
8 | CCC[C@@]1(CCc2ccccc2)CC(O)=C([C@H](CC)c2cccc(NS(=O)(=O)c3ccc(C(F)(F)F)cn3)c2)C(=O)O1 [TPV, tipranavir] | – | 8.6 ± 1.2 | – | – | –
